Like-named read-outs stand apart in the source and are kept apart here.
Columns and labels:
hPR [1] = biological target: T1, hPR (Homo sapiens, UniProt P06401); experiment: Cotransfection assay, PR antagonist activity in CV-1 cells; assay type: cell-based; settings: for IC50: antagonist potency IC50; for PR Antagonist CV-1 Cells Efficacy (%): percent maximal response relative to reference antagonist
T1 sequence (P06401 1-933): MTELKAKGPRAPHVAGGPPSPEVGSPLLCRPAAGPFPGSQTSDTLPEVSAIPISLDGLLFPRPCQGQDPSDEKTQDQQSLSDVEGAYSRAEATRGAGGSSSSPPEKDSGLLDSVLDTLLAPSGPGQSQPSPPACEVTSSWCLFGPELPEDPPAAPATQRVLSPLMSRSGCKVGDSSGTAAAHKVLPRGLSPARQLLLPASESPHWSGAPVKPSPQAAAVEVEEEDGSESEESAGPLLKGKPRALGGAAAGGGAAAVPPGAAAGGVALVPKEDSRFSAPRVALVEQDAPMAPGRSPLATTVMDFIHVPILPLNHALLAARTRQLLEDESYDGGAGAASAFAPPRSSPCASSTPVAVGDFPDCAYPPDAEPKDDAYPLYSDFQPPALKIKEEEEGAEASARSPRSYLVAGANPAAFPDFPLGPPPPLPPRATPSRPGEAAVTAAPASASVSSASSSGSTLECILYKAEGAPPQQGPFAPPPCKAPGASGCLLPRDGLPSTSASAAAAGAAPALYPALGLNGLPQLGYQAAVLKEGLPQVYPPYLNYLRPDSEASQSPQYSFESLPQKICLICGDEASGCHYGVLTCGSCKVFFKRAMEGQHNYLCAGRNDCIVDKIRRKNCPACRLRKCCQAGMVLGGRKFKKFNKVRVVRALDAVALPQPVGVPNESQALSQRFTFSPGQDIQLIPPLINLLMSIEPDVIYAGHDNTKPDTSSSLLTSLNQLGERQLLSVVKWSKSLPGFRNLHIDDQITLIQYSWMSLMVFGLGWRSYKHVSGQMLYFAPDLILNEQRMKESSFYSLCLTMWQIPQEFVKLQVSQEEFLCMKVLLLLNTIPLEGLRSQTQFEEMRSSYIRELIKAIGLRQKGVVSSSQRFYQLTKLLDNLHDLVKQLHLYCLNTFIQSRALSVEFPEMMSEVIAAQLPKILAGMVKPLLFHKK

hPR [2] = biological target: T1, hPR; experiment: Cotransfection assay, PR agonist activity in CV-1 cells; assay type: cell-based; settings: for EC50: agonist potency EC50, read-out: PR Agonist CV-1 Cells Potency
hPR-A = biological target: T2, hPR-A (Homo sapiens, UniProt P06401); experiment: Receptor competitive binding assay; settings: hPR-A; read-out: PR Binding Ki
T2 sequence (P06401 1-769 isoform P06401-2): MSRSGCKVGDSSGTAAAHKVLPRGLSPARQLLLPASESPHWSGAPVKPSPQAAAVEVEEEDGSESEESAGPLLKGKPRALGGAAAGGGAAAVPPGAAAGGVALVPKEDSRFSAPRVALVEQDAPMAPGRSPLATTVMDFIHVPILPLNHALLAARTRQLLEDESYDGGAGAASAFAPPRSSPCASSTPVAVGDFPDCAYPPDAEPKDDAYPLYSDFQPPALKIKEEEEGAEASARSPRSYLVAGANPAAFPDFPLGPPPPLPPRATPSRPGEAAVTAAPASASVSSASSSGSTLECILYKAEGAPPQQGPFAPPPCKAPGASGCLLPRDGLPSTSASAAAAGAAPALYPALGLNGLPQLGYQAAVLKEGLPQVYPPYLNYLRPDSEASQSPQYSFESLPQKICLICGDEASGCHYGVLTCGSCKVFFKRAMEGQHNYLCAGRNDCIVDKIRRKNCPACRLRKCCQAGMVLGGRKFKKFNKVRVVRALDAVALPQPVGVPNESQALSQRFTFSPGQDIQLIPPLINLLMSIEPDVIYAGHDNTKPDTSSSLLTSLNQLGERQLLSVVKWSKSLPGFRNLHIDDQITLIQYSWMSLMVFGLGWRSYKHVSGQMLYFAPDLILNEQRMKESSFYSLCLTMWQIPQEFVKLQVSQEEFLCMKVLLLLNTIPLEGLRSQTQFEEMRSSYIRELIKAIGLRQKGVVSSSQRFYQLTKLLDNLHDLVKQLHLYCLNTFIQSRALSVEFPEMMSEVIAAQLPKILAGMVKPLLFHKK

immature rabbits = experiment: McPhail (Clauberg) assay of progestational activity; assay type: in vivo, rabbit; settings: minimum active dose; estradiol-primed immature rabbits, uterine glandular changes
Procedure: The in vivo activity of selected hPR modulator compounds of the present invention were evaluated utilizing the McPhail assay, according to the following illustrative Examples. The Clauberg or McPhail assay is a classic assay utilizing rabbits to measure progestational activity. […] This is followed by treatment with a progestin, which causes a large change in the glandular content of the uterus. It is this change in the glandular component, which is a measure of the progestational activity of a progestin. The measurement of these glandular changes are carried out histologically using stained sections of the uterus. The in vivo potency of the progestins is presented as the minimum active dose (MAD) in mg/kg.

[3] = CV-1 cells, MTV-LUC reporter, percent maximal response relative to progesterone

| Compound | IC50 (hPR [1]) | PR Agonist CV-1 Cells Efficacy (%) (hPR [2]; [3]) | EC50 (hPR [2]; CV-1 cells) | Ki (hPR-A) | PR Antagonist CV-1 Cells Efficacy (%) (hPR [1]) | MAD (immature rabbits) | PR Agonist CV-1 Cells Efficacy (%) (hPR [2]) |
| --- | --- | --- | --- | --- | --- | --- | --- |
| CC1=CC(C2Oc3ccc(F)cc3-c3ccc4c(c32)C(C)=CC(C)(C)N4)CCC1 (racemic) [Compound 25, (±)-(5l,1′u)-5-(3-methyl-2-cyclohexenyl)-9-fluoro-1,2-dihydro-2,2,4-trimethyl-5H-chromeno[3,4-f]quinoline] | > 10 µM | 86% | 0.0097 µM | 0.0063 µM | na (na = not active (i.e. efficacy of <20 and potency of >10,000)) | – | – |
| CC1=C[C@H]([C@H]2Oc3c(F)cc(F)cc3-c3ccc4c(c32)C(C)=CC(C)(C)N4)CCC1 (racemic) [Compound 34, (±)-(5l,1′l)-5-(3-methyl-2-cyclohexenyl)-7,9-difluoro-1,2-dihydro-2,2,4-trimethyl-5H-chromeno[3,4-f]quinoline] | – | 164% | – | – | na (na = not active (i.e. efficacy of <20 and potency of >10,000)) | 0.25 mg/kg | – |
| CC1=C[C@@H]([C@H]2Oc3c(F)cc(F)cc3-c3ccc4c(c32)C(C)=CC(C)(C)N4)CCC1 (racemic) [Compound 35, (±)-(5l,1′u)-5-(3-methyl-2-cyclohexenyl)-7,9-difluoro-1,2-dihydro-2,2,4-trimethyl-5H-chromeno[3,4-f]quinoline] | – | 100% | – | – | na (na = not active (i.e. efficacy of <20 and potency of >10,000)) | – | – |
| CC1=C[C@H]([C@H]2Oc3ccc(F)cc3-c3ccc4c(c32)C=CC(C)(C)N4)CCC1 (racemic) [Compound 41, (±)-(5l,1′l)-5-(3-methyl-2-cyclohexenyl)-9-fluoro-1,2-dihydro-2,2-dimethyl-5H-chromeno[3,4-f]quinoline] | > 10 µM | 122% | 0.01 µM | 0.011 µM | na (na = not active (i.e. efficacy of <20 and potency of >10,000)) | – | – |
| CC1=C[C@@H]([C@H]2Oc3ccc(F)cc3-c3ccc4c(c32)C=CC(C)(C)N4)CCC1 (racemic) [Compound 42, (±)-(5l,1′u)-5-(3-methyl-2-cyclohexenyl)-9-fluoro-1,2-dihydro-2,2-dimethyl-5H-chromeno[3,4-f]quinoline] | > 10 µM | 27% | 0.038 µM | 0.143 µM | na (na = not active (i.e. efficacy of <20 and potency of >10,000)) | – | – |
| CC1=CC(C2Oc3ccc(F)cc3-c3ccc4c(c32)C(C)=CC(C)(C)N4)CC1 (racemic) [Compound 44, (±)-(5l,1′l)-5-(3-methyl-2-cyclopentenyl)-9-fluoro-1,2-dihydro-2,2,4-trimethyl-5H-chromeno[3,4-f]quinoline] | > 10 µM | 123% | 0.0067 µM | 0.0077 µM | na (na = not active (i.e. efficacy of <20 and potency of >10,000)) | – | – |
| COc1cc2c(cc1F)-c1ccc3c(c1C(C1C=C(C)CCC1)O2)C(C)=CC(C)(C)N3 (racemic) [Compound 64, (±)-(5l,1′l)-5-(3-methyl-2-cyclohexenyl)-9-fluoro-1,2-dihydro-8-methoxy-2,2,4-trimethyl-5H-chromeno[3,4-f]quinoline] | 1.9 µM | na (na = not active (i.e. efficacy of <20 and potency of >10,000)) | > 10 µM | 0.485 µM | 80% | – | – |
| COc1cc2c(cc1F)-c1ccc3c(c1C(C1C=C(C)CCC1)O2)C(C)=CC(C)(C)N3 (racemic) [Compound 65, (±)-(5l,1′u)-5-(3-methyl-2-cyclohexenyl)-9-fluoro-1,2-dihydro-8-methoxy-2,2,4-trimethyl-5H-chromeno[3,4-f]quinoline] | 0.65 µM | na (na = not active (i.e. efficacy of <20 and potency of >10,000)) | > 10 µM | 0.329 µM | 59% | – | – |
| CC1=CC(C2Oc3ccc(F)cc3-c3ccc4c(c32)C(C)=CC(C)(C)N4)CCC1 (single isomer, unassigned; (+)) [Compound 27, (+)-(5l,1′l)-5-(3-methyl-2-cyclohexenyl)-9-fluoro-1,2-dihydro-2,2,4-trimethyl-5H-chromeno[3,4-f]quinoline] | > 10 µM | 68% | 0.043 µM | 0.241 µM | na (na = not active (i.e. efficacy of <20 and potency of >10,000)) | – | – |
| CC1=CC(C2Oc3c(F)cc(F)cc3-c3ccc4c(c32)C(C)=CC(C)(C)N4)CCC1 (single isomer, unassigned; (+)) [Compound 37, (+)-(5l,1′l)-5-(3-methyl-2-cyclohexenyl)-7,9-difluoro-1,2-dihydro-2,2,4-trimethyl-5H-chromeno[3,4-f]quinoline] | – | na (na = not active (i.e. efficacy of <20 and potency of >10,000)) | – | – | 50% | – | – |
| CC1=CC(C2Oc3ccc(F)cc3-c3ccc4c(c32)C(C)=CC(C)(C)N4)CCC1 (single isomer, unassigned; (-)) [Compound 28, (−)-(5l,1′l)-5-(3-methyl-2-cyclohexenyl)-9-fluoro-1,2-dihydro-2,2,4-trimethyl-5H-chromeno[3,4-f]quinoline] | > 10 µM | 171% | 0.0009 µM | 0.002 µM | na (na = not active (i.e. efficacy of <20 and potency of >10,000)) | – | – |
| CC#C[C@]1(O)CC[C@H]2[C@@H]3CCC4=CC(=O)CCC4=C3[C@@H](c3ccc(N(C)C)cc3)C[C@@]21C [RU486, mifepristone, reference compound] | – | – | – | – | – | – | na (key: na = not active (i.e. efficacy of <20 and potency of >10,000)) |
| CN(C)c1ccc([C@H]2C[C@]3(C)[C@@H](CC[C@]3(O)CCCO)[C@@H]3CCC4=CC(=O)CCC4=C32)cc1 [ZK299, reference compound] | – | – | – | – | 99% | – | – |

Now from value to compound, other results behind:

| IC50 (hPR [1]) | PR Agonist CV-1 Cells Efficacy (%) (hPR [2]; [3]) | EC50 (hPR [2]; CV-1 cells) | Ki (hPR-A) | Compound | PR Antagonist CV-1 Cells Efficacy (%) (hPR [1]) | MAD (immature rabbits) | PR Agonist CV-1 Cells Efficacy (%) (hPR [2]) |
| --- | --- | --- | --- | --- | --- | --- | --- |
| > 10 µM | 94% | 0.0091 µM | 0.017 µM | CC1=CC(C2Oc3ccc(F)cc3-c3ccc4c(c32)C(C)=CC(C)(C)N4)CC1 (racemic) [Compound 45, (±)-(5l,1′u)-5-(3-methyl-2-cyclopentenyl)-9-fluoro-1,2-dihydro-2,2,4-trimethyl-5H-chromeno[3,4-f]quinoline] | na (na = not active (i.e. efficacy of <20 and potency of >10,000)) | – | – |
| – | 100% | – | – | CC(=O)[C@H]1CC[C@H]2[C@@H]3CCC4=CC(=O)CC[C@]4(C)[C@H]3CC[C@]12C [Prog, progesterone, reference compound] | – | – | – |

Reference: US7071205B2 (Ligand Pharmaceuticals Incorporated, priority 2002, dated 2006)
